Reference: US10221178B2, “Purine inhibitors of human phosphatidylinositol 3-kinase delta” (MERCK SHARP & DOHME CORP., priority 2015, dated 2019)

How the values were obtained:
PI3Kdelta = PI3Kdelta (Homo sapiens (Human), UniProt O00329); assay: HTRF PI3K biochemical assay, delta isoform; conditions: 0.3 nM enzyme, 100 uM ATP, 5 uM PIP2, form screened: Neutral
Excerpt: (§1) HTRF PI3K Biochemical Assay to Measure Intrinsic Potency of Compound Inhibitors
(§2) The PI3-Kinase biochemical assays were developed to measure the intrinsic potency and compound dependent inhibition of the alpha, beta, delta, and gamma PI3K isoform enzymes.
(§3) This assay was developed and further optimized from a kit produced by Upstate (Millipore catalog #33-047) and has been configured for HTS (high throughput screening) and SAR screening. Briefly, this procedure exploits the exquisite specificity and high affinity binding of enzyme reaction substrate phosphatidyl(3,4,5)triphosphate (PIP3) to the GRP1 pleckstrin homology (PH) domain to generate the signal. In the absence of PIP3, an HTRF (Homogeneous Time-Resolved Fluorescence energy transfer) complex is formed consisting of europium (Eu)-labeled anti-GST, GSTtagged GRP1-PH domain, biotin-PIP3 and streptavidin conjugated APC. The native PIP3 produced by PI3-Kinase activity disrupts in a competitive manner the biotin-PIP3 from the PH domain, resulting in the loss of energy transfer (HTRF complex) and a decrease in the signal. The format of this assay is the same for all 4 isoforms of PI3K; the differences lie in the concentration of enzyme used to achieve robust assay window. The alpha, beta, and delta assays are run at 0.5, 1, and 0.3 nM enzymes and the gamma assay is run at 5 nM enzyme. The ATP concentration is 100 uM in the alpha, beta, and delta assays and 50 uM ATP in the gamma assay. All reactions are run at 5 uM PIP2.
(§4) Compounds are serially diluted (3-fold in 100% DMSO) across a 384-well polypropylene source plated from column 3 to column 12 and column 13 to column 22, to yield 10 concentration dose response for each test compound. Columns 1, 2, 23 and 24 contain either only DMSO or pharmacological known control inhibitor. Once titrations are made, 2.5 nL of the compounds on 384 well plates are reformatted and transferred by acoustic dispense in quadruplicates to a 1536 assay plate (Greiner) to assay across all four PI3K isoform enzymes.
(§5) The PI3-Kinase biochemical assay was optimized using the HTRF kit provided by Upstate (Millipore). The assay kit contains six reagents: 1) 4× Reaction Buffer; 2) native PIP2 (substrate); 3) Stop (EDTA); 4) Detection Mix A (Streptavidin-APC); 5) Detection Mix B (Eu-labeled Anti-GST plus GST-tagged PH-domain); 6) Detection Mix C. In addition, the following items were obtained or purchased; PI3Kinase (alpha 14-602, beta 14-603, gamma 14-558 and delta 14-604 from Upstate; Millipore), dithiothreitol (Sigma, D-5545), Adenosine-5′ triphosphate (InVitrogen, Cat#AS001A), native PIP3 (PI(3,4,5)P3, diC8, H^+, CELLSIGNALS, INC. Cat #907) DMSO (Sigma, 472301).
(§6) PI3Kinase Reaction Buffer is prepared by dilution the stock 1:4 with de-ionized water. DTT, PIP2 and Biotin-PIP3 were added to 1536 assay plate at a final concentration of 5 mM, […] on the day of use. Enzyme addition and compound pre-incubation are initiated by the addition of 1.25 ul of PI3K (at twice its final concentration) in the 1× reaction buffer to all wells using a BioRaptor. Plates are incubated at RT for 15 minutes. Reactions are initiated by addition of 1.25 ul of 2× substrate solution (PIP2 and ATP in 1× reaction buffer) using BioRaptor. Plates are incubated in humidified chamber at RT for one hour. Reactions are quenched by addition of 0.625 uL of stop solution to all wells using the BioRaptor. The quenched reactions are then processed to detect product formation by adding 0.625 uL of Detection Solution to all wells using the BioRaptor (Detection mix C, Detection Mix A, and Detection Mix B combined together in an 18:1:1 ratio prepared 2 hours prior to use). Following a one hour incubation in the dark, the HTRF signal is measured on the Envision plate reader set for 330 nm excitation and dual emission detection at 620 nM (Eu) and 665 nM (APC).

PI3Kalpha = PI3Kalpha (Homo sapiens (Human), UniProt P42336); assay: HTRF PI3K biochemical assay, alpha isoform (selectivity versus PI3Kalpha); conditions: relative ratio (PI3K-alpha IC50 value/PI3K-delta IC50 value); form screened: Neutral
Excerpt: as §1, §2, §3, §4, §5
as §6, with “[…]. […]” for “(APC).”

Chain of PI3Kdelta (O00329 whole entry, canonical isoform): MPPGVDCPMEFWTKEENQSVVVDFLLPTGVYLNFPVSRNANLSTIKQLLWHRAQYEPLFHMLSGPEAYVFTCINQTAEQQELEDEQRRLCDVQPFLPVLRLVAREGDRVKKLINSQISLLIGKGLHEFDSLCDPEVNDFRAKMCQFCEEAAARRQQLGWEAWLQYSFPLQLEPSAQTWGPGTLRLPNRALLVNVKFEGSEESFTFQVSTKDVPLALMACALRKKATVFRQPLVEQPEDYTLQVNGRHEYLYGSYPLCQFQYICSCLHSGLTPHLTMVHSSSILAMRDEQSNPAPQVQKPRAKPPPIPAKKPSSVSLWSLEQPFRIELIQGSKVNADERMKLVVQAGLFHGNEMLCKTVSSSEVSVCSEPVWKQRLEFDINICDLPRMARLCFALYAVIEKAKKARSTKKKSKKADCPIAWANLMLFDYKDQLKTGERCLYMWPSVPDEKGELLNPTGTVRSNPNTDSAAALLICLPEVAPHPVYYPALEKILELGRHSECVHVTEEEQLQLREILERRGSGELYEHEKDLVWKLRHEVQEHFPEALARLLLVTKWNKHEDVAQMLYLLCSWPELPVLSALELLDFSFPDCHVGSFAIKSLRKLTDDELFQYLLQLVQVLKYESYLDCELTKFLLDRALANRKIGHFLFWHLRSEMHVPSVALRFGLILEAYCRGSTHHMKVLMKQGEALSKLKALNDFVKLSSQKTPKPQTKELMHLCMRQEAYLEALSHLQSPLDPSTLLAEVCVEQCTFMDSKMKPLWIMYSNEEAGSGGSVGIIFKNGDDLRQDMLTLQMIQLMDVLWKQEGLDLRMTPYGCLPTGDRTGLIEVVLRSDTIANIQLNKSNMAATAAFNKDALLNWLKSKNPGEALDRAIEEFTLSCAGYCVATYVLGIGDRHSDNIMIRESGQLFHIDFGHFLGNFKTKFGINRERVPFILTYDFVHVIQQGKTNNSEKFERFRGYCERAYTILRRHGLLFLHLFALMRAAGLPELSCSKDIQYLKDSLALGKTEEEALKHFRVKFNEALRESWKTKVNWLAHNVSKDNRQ
Chain of PI3Kdelta (P27986 whole entry partner, canonical isoform): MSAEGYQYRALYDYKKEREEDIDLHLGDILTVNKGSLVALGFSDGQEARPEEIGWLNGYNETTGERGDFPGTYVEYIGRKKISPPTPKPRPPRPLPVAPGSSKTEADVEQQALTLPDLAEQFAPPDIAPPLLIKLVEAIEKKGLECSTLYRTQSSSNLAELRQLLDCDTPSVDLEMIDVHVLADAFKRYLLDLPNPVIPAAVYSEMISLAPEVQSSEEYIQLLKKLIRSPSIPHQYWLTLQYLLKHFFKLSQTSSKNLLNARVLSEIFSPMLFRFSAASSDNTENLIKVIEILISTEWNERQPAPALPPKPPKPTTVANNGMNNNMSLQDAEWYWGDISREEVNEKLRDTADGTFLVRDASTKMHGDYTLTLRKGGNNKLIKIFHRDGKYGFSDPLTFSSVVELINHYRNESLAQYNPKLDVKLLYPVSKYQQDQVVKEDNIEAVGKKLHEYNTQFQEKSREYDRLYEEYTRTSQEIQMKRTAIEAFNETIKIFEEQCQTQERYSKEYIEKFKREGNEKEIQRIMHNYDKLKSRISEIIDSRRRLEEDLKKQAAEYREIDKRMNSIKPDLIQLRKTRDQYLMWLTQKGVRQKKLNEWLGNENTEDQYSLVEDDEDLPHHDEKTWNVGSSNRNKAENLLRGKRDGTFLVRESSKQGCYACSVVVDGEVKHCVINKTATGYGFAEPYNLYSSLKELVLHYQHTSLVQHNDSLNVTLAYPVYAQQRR
Chain of PI3Kalpha (P42336 whole entry, canonical isoform): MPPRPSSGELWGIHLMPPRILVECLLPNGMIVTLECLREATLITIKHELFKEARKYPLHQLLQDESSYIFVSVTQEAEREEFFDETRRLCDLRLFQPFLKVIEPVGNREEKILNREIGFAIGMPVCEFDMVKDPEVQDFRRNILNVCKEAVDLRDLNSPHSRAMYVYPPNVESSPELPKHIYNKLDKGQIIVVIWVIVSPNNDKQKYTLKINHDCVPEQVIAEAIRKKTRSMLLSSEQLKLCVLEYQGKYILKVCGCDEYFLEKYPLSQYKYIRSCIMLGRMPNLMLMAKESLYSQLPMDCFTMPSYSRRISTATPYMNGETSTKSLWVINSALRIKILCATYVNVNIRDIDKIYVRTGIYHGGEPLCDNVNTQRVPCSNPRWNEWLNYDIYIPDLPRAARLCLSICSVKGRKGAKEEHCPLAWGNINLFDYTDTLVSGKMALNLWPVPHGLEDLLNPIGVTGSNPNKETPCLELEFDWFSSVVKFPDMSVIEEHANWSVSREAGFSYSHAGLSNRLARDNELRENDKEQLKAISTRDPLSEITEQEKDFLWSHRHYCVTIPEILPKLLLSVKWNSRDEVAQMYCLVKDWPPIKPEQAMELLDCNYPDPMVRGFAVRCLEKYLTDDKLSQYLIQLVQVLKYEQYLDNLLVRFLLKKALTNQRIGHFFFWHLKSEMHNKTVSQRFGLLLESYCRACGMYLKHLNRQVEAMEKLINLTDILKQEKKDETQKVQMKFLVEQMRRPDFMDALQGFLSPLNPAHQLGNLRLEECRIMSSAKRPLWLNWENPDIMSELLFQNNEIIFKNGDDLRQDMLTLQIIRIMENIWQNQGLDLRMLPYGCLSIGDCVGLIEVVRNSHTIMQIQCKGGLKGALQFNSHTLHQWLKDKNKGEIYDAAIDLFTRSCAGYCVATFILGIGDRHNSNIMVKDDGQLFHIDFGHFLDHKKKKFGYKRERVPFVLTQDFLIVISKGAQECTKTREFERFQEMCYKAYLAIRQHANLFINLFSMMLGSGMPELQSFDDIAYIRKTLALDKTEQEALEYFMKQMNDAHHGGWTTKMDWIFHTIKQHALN
Chain of PI3Kalpha (P27986 whole entry partner, canonical isoform): as the sequence (P27986 whole entry partner, canonical isoform) above

Compound | IC50 (PI3Kdelta) [µM] | Selectivity versus PI3Kalpha (PI3Kalpha)
CC[C@H](Nc1ncnc2c1nc(-c1cnc(C)nc1)n2CC)C(=O)N1CCS(=O)(=O)CC1 [Compound 2-8, N-{(1S)-1-[(1,1-dioxidothiomorpholin-4-yl)carbonyl]propyl}-9-ethyl-8-(2-methylpyrimidin-5-yl)-9H-purin-6-amine] | 0.031 | >10
CCn1c(-c2cnc(C)nc2)nc2c(N[C@H](CC(=O)N3C[C@@H](C)O[C@@H](C)C3)C(C)C)ncnc21 [Compound 2-58, N-[(1R)-3-[(cis)-2,6-dimethylmorpholin-4-yl]-1-(1-methylethyl)-3-oxopropyl]-9-ethyl-8-(2-methylpyrimidin-5-yl)-9H-purin-6-amine] | 0.29 | >10
CC[C@H](Nc1ccnc2c1nc(-c1cnc(C)nc1)n2CC)C(=O)N1C[C@@H](C)O[C@@H](C)C1 [Compound 3-1, N-[(1S)-1-{[(cis)-2,6-dimethylmorpholin-4-yl]carbonyl}propyl]-3-ethyl-2-(2-methylpyrimidin-5-yl)-3H-imidazo[4,5-b]pyridin-7-amine] | 0.017 | >10
CC[C@H](Nc1ncnc2c1nc(-c1cnc(C)nc1)n2CC)C(=O)N1CCCC(F)(F)C1 [Compound 2-12, N-{(1S)-1-[(3,3-difluoropiperidin-1-yl)carbonyl]propyl}-9-ethyl-8-(2-methylpyrimidin-5-yl)-9H-purin-6-amine] | 0.011 | >10
CC[C@H](Nc1ncnc2c1nc(-c1cnc(C)nc1)n2CC)C(=O)N1CCOCC1(C)C [Compound 2-34, N-{(1S)-1-[(3,3-dimethylmorpholin-4-yl)carbonyl]propyl}-9-ethyl-8-(2-methylpyrimidin-5-yl)-9H-purin-6-amine] | 0.012 | >10
CCn1c(-c2cnc(C)nc2)nc2c(N[C@H](C(=O)N3C[C@@H](C)O[C@@H](C)C3)c3ccccc3)ncnc21 [Compound 2-43, N-{(1S)-2-[(cis)-2,6-dimethylmorpholin-4-yl]-2-oxo-1-phenylethyl}-9-ethyl-8-(2-methylpyrimidin-5-yl)-9H-purin-6-amine] | 0.087 | >10
CC[C@H](Nc1ncnc2c1nc(-c1cnc(C)nc1)n2CC)C(=O)N1CCOC(C)(C)C1 [Compound 2-33, N-{(1S)-1-[(2,2-dimethylmorpholin-4-yl)carbonyl]propyl}-9-ethyl-8-(2-methylpyrimidin-5-yl)-9H-purin-6-amine] | 0.0098 | >10
CCC(Nc1ncnc2c1nc(-c1cnc(C)nc1)n2CC)C(=O)N1CCOCC1 (single isomer, unassigned) [Compound 1-8, (R or S)-9-ethyl-8-(2-methylpyrimidin-5-yl)-N-[1-(morpholin-4-ylcarbonyl)propyl]-9H-purin-6-amine] | 0.0065 | >10
CCn1c(-c2cnc(C)nc2)nc2c(N[C@H](CC(=O)N3CCCC3)C(C)C)ncnc21 [Compound 2-62, 9-ethyl-N-[(1R)-1-(1-methylethyl)-3-oxo-3-pyrrolidin-1-ylpropyl]-8-(2-methylpyrimidin-5-yl)-9H-purin-6-amine] | 0.1 | >10
CCC(Oc1ncnc2c1nc(-c1cnn(CC)c1C)n2C)C(=O)N1CCCCC1 (racemic) [Compound 1-2, (R and S)-8-(1-ethyl-5-methyl-1H-pyrazol-4-yl)-9-methyl-6-[1-(piperidin-1-ylcarbonyl)propoxy]-9H-purine] | 0.24 | >10
CC[C@H](Nc1ncnc2c1nc(-c1cnc(C)nc1)n2CC)C(=O)N1CCOCC1C(C)C (stereo partly drawn) [Compound 2-32, 9-ethyl-N-[(1S)-1-{[3-(1-methylethyl)morpholin-4-yl]carbonyl}propyl]-8-(2-methylpyrimidin-5-yl)-9H-purin-6-amine] | 0.083 | >10

Continued, values first:

IC50 (PI3Kdelta) [µM] | Selectivity versus PI3Kalpha (PI3Kalpha) | Compound
0.021 | >10 | CC[C@H](Nc1ncnc2c1nc(-c1cnc(C)nc1)n2CC)C(=O)N1C[C@@H](C)N(C(C)=O)[C@@H](C)C1 [Compound 4-2, N-[(1S)-1-{[cis-4-acetyl-3,5-dimethylpiperazin-1-yl]carbonyl}propyl]-9-ethyl-8-(2-methylpyrimidin-5-yl)-9H-purin-6-amine]
0.0061 | >10 | CC[C@H](Nc1ncnc2c1nc(-c1cnc(C)nc1)n2CC)C(=O)N1C[C@@H](C)O[C@@H](C)C1 [Compound 2-6, N-[(1S)-1-{[(cis)-2,6-dimethylmorpholin-4-yl]carbonyl}propyl]-9-ethyl-8-(2-methylpyrimidin-5-yl)-9H-purin-6-amine]
0.0093 | >10 | CC[C@H](Nc1ncnc2c1nc(-c1cnc(C)nc1)n2CC)C(=O)N1CCCC(C)C1 (mixture of isomers) [Compound 2-23, 9-ethyl-N-{(1S)-1-[((R and S)-3-methylpiperidin-1-yl)carbonyl]propyl}-8-(2-methylpyrimidin-5-yl)-9H-purin-6-amine]
0.112 | >10 | CC[C@H](Nc1ncnc2c1nc(-c1cnc(C)nc1)n2CC)C(=O)N1CC[C@@H](F)C1 [Compound 2-16, 9-ethyl-N-[(1S)-1-{[(3R)-3-fluoropyrrolidin-1-yl]carbonyl}propyl]-8-(2-methylpyrimidin-5-yl)-9H-purin-6-amine]
0.0091 | >10 | CC[C@H](Nc1ncnc2c1nc(-c1cnc(C)nc1)n2CC)C(=O)N1C[C@H](C)O[C@@H](C)C1 (stereo in doubt) [Compound 2-36, N-[(1S)-1-{[(trans)-2,6-dimethylmorpholin-4-yl]carbonyl}propyl]-9-ethyl-8-(2-methylpyrimidin-5-yl)-9H-purin-6-amine]
0.0048 | >10 | CC[C@H](Nc1ncnc2c1nc(-c1cnc(C)nc1)n2CC)C(=O)N1C[C@@H](C)C(F)(F)[C@@H](C)C1 [Compound 4-4, N-[(1S)-1-{[cis-4,4-difluoro-3,5-dimethylpiperidin-1-yl]carbonyl}propyl]-9-ethyl-8-(2-methylpyrimidin-5-yl)-9H-purin-6-amine]
0.0055 | >10 | CC[C@H](Nc1ncnc2c1nc(-c1cnc(C)nc1)n2CC)C(=O)N1C[C@@H](C)N(C)[C@@H](C)C1 [Compound 4-3, 9-ethyl-8-(2-methylpyrimidin-5-yl)-N-[(1S)-1-{[cis-3,4,5-trimethylpiperazin-1-yl]carbonyl}propyl]-9H-purin-6-amine]
